In US20030229087A1 (priority 2002, published 2003) one finds pest or weed control and Efficacy in % data, which are given here for nine molecules.

Type in all cases: in vivo
The subject of assay [1] is Sphaerotheca fuliginea. Put plainly: whole plant or invertebrate. The settings on record: Podosphaera fuliginea, in Cucumis sativus, 240 h, read-out: % Efficacy.
The subject of assay [2] is Pyrenophora teres. Put plainly: Pyrenophora teres test (barley)/protective. Conditions: protective, application rate 25 g/ha, evaluation 7 days after inoculation. The protocol:
Pyrenophora teres Test (Barley)/Protective
(§1) To produce a suitable preparation of active compound, 1 part by weight of active compound or active compound combination is mixed with the stated amounts of solvent and emulsifier, and the concentrate is diluted with water to the desired concentration.
To test for protective activity, young plants are sprayed with the preparation of active compound at the stated application rate. After the spray coating has dried on, the plants are sprayed with a conidia suspension of Pyrenophora teres. The plants remain in an incubation cabin at 20° C. and 100% relative atmospheric humidity for 48 hours.
The plants are then placed in a greenhouse at a temperature of approximately 20° C. and a relative atmospheric humidity of approximately 80%.
(§2) Evaluation is carried out 7 days after the inoculation. 0% means an efficacy which corresponds to that of the control, whereas an efficacy of 100% means that no infection is observed.

The subject of assay [3] is Erysiphe graminis f.sp. hordei. Put plainly: Erysiphe test (barley)/protective. The settings on record: Blumeria graminis, 168 h, protective, application rate 12.5 g/ha, evaluation 7 days after inoculation, read-out: Efficacy in %. The procedure:
Erysiphe Test (Barley)/Protective
as §1
(§3) To test for protective activity, young plants are sprayed with the preparation of active compound at the stated application rate.
After the spray coating has dried on, the plants are dusted with spores of Erysiphe graminis f.sp. hordei.
(§4) The plants are placed in a greenhouse at a temperature of approximately 20° C. and a relative atmospheric humidity of approximately 80% to promote the development of mildew postules.
as §2

Assay [4] concerns Leptosphaeria nodorum. Put plainly: Leptosphaeria nodorum test (wheat)/protective. Conditions: protective, application rate 25 g/ha, evaluation 10 days after inoculation. The protocol: Leptosphaeria nodorum Test (Wheat)/Protective
To produce a suitable preparation of active compound, 1 part by weight of active compound or active compound combination is mixed with the stated amounts of solvents and emulsifier, and the concentrate is diluted with water to the desired concentration.
To test for protective activity, young plants are sprayed with the preparation of active compound at the stated application rate. After the spray coating has dried on, the plants are sprayed with a spore suspension of Leptosphaeria nodorum. The plants remain in an incubation cabin at 20° C. and 100% relative atmospheric humidity for 48 hours.
The plants are placed in a greenhouse at a temperature of approximately 15° C. and a relative atmospheric humidity of 80%.
Evaluation is carried out 10 days after the inoculation. 0% means an efficacy which corresponds to that of the control, whereas an efficacy of 100% means that no infection is observed.

Assay [5] has as its system Erysiphe graminis f.sp. tritici. Put plainly: Erysiphe test (wheat)/protective. Conditions: protective, application rate 6.25 g/ha, evaluation 7 days after inoculation. The procedure: Erysiphe Test (Wheat)/Protective
as §1, §3
After the spray coating has dried on, the plants are dusted with spores of Erysiphe graminis f.sp. tritici.
as §4, §2

The test system of assay [6] is Phytophthora infestans. Put plainly: whole plant or invertebrate. Conditions: Phytophthora infestans, in Solanum lycopersicum, 72 h, read-out: % Efficacy.

For `CNC(=O)/C(=N/OC)c1ccccc1Oc1ncnc(Oc2cccc(Cl)c2C)c1F` [Compound of the formula (I), (2E/Z)-2-(2-{[6-(3-chloro-2-methylphenoxy)-5-fluoro-4-pyrimidinyl]oxy}phenyl)-2-(methoxyimino)-N-methylethanamide], the values for the pest or weed control at 0.5 g/ha in assay [1] and in assay [6] were 30% and 32%, respectively. Moreover, the pest or weed control at 1 g/ha in assay [1] turned out to be 69%; in assay [6], 60%. Also, the results for the Efficacy in % in assay [2], in assay [4] and in assay [5] were 60%, 60% and 0%, respectively. In addition, the pest or weed control at 12.5 g/ha in assay [3] is 80%. Besides, in assay [6], the pest or weed control at 2 g/ha turned out to be 72%.
Turning to `OC(Cc1ccccc1Cl)(Cn1nc[nH]c1=S)C1(Cl)CC1` (stereo not drawn) [Compound of the formula (LXX) (69), 2-(1-chloro-cyclopropyl)-1-(2-chlorophenyl)-3-(5-mercapto-1,2,4-triazol-1-yl)-propan-2-ol], the Efficacy in % in assay [2] is 70%. Further, the pest or weed control at 12.5 g/ha in assay [3] is 90%. Moreover, the pest or weed control at 5 g/ha in assay [6] was found to be 0%.
In the case of `Cc1noc(C)c1S(=O)(=O)n1c(Cl)nc2cc3c(cc21)OC(F)(F)O3` [Compound of the formula (LXXI) (70), 1-(3,5-dimethylisoxazole-4-sulphonyl)-2-chloro-6,6-difluoro-[1,3]-dioxolo-[4,5f]benzimidazole], the pest or weed control at 1 g/ha in assay [1] turned out to be 0%. For the same molecule, the pest or weed control at 12.5 g/ha in assay [3] came out at 0%. The Efficacy in % in assay [4] amounted to 0%.
On to `CO/N=C(/C1=NOCCO1)c1ccccc1Oc1ncnc(Oc2ccccc2Cl)c1F` [Compound of the formula (LXXII) (71)], for which the pest or weed control at 2 g/ha in assay [1] was 43%. In addition, in assay [3], the pest or weed control at 12.5 g/ha stood at 0%. In assay [4], the Efficacy in % was 40%.
Consider `Cc1cc(C2CC2)nc(Nc2ccccc2)n1` [cyprodinil (XVIII) (17), cyprodinil], for which the pest or weed control at 10 g/ha in assay [1] is 22%. Moreover, the Efficacy in % in assay [2] was 0%. Further, the pest or weed control at 12.5 g/ha in assay [3] is 0%.
On to `Fc1ccc(C2(Cn3cncn3)OC2c2ccccc2Cl)cc1` (stereo not drawn) [epoxiconazole (XI) (10), epoxiconazole], for which the Efficacy in % is 60% in assay [2] and 70% in assay [5].
As to `CC1(C)CCC(Cc2ccc(Cl)cc2)C1(O)Cn1cncn1` (stereo not drawn) [metconazole (XII) (11), metconazole], the Efficacy in % in assay [5] is listed as 50%.
Consider `CC(C)(C)C(O)(CCc1ccc(Cl)cc1)Cn1cncn1` (stereo not drawn) [tebuconazole (IV) (3), tebuconazole], for which the pest or weed control at 2.5 g/ha in assay [1] was 0%. The values for the Efficacy in % in assay [2] and in assay [4] were 0% and 50%, respectively.
Regarding `CC(C)(C)C(O)C(Oc1ccc(Cl)cc1)n1cncn1` (stereo not drawn) [triadimenol (X) (9), 1-(4-chloro-phenoxy)-3,3-dimethyl-1-(1,2,4-triazol-1-yl)-butan-2-ol], in assay [1], the pest or weed control at 2.5 g/ha was 0%. Moreover, the Efficacy in % in assay [2] is 30%. Moreover, in assay [6], the pest or weed control at 5 g/ha is 0%.
